Measurements reported in patent publication US20080021026A1, “BENZOTHIOPHENE INHIBITORS OF RHO KINASE” (priority 2006, published 2008).

Assays:
[1] = target: T1, recombinant N-terminal GST-tagged human Rho kinase 1 (ROCK1, amino acids 1-535) (Homo sapiens, UniProt Q13464); experiment: In vitro Rho kinase assay (luciferase-based ATP consumption), ROCK1; type: biochemical; conditions: recombinant GST-tagged human ROCK1, luciferase-based ATP consumption; read-out: ROCK1 IC50
T1 construct: ROCK1, amino acids 1-535; purchased Invitrogen Inc. PV-3691
T1 sequence (Q13464 1-535): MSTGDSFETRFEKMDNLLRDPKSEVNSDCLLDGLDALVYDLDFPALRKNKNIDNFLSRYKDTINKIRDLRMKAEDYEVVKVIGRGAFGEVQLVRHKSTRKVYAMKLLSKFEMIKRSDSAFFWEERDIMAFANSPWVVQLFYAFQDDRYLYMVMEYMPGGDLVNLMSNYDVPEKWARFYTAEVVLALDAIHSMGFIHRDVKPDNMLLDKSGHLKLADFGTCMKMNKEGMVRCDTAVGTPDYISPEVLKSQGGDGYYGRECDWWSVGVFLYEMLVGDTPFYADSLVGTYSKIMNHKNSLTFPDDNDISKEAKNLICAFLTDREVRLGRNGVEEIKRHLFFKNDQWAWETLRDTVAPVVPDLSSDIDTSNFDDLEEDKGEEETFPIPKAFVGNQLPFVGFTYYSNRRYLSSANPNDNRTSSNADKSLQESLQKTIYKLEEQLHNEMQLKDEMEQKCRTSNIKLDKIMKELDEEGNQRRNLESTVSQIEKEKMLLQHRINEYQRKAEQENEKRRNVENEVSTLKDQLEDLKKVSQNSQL
Method in brief: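 GST-ROCK1 (aa 1-535) at 0.82 μg/ml with 100 μg/ml S6 peptide and 3 µM ATP in Tris pH 7.5 buffer with MgCl2, CaCl2, EGTA, BSA; compound added after reaction start, 2 h at 30 °C. Remaining ATP read by luciferase luminescence; efficacy as percent of H-1152P positive control.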

[2] = target: T2, recombinant N-terminal GST-tagged human Rho kinase 2 (ROCK2, amino acids 1-552) (Homo sapiens, UniProt O75116); experiment: In vitro Rho kinase assay (luciferase-based ATP consumption), ROCK2; type: biochemical; conditions: recombinant GST-tagged human ROCK2, luciferase-based ATP consumption; read-out: ROCK2 IC50
T2 construct: ROCK2, amino acids 1-552; purchased Invitrogen Inc. PV3759
T2 sequence (O75116 1-552): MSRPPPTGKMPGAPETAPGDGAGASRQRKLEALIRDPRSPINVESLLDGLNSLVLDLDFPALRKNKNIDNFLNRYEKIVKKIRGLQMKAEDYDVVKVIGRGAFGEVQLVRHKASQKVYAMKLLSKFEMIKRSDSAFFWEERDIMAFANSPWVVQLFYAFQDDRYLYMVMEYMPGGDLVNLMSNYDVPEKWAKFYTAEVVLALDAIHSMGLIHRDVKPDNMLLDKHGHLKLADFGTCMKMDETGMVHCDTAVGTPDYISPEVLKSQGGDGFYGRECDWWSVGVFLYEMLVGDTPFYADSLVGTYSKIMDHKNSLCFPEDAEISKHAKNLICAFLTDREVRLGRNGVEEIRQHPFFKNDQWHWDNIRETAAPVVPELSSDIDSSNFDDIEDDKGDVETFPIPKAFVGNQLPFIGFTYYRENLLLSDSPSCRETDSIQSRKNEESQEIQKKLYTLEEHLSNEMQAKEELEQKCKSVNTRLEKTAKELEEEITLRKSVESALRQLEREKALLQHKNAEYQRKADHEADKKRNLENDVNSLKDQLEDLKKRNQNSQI
Method in brief: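 GST-ROCK2 (aa 1-552, 0.82 μg/ml) with 100 μg/ml S6 peptide and 3 µM ATP in Tris pH 7.5 buffer with MgCl2/CaCl2/EGTA/BSA, compound added just after reaction start, 2 h at 30 °C. Remaining ATP read by luciferase luminescence. Efficacy expressed as percentage of H-1152P positive control.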

Row | SMILES | IC50 [1] | IC50 [2]
1 | Cc1c(-c2ccnc(N)n2)sc2ccc(C(=O)N3CCC(NC(=O)OC(C)(C)C)C3)cc12 (stereo not drawn) [Example 22, tert-Butyl 1-(2-(2-aminopyrimidin-4-yl)-3-methylbenzo[b]thiophene-5-carbonyl)pyrrolidin-3-ylcarbamate] | > 5 µM | > 5 µM
2 | Cc1c(-c2ccnc(N)n2)sc2ccc(CNC(=O)c3cc4cc(Cl)ccc4o3)cc12 [Example 258, Cc1c(sc2ccc(CNC(═O)c3cc4cc(Cl)ccc4o3)cc12)-c5ccnc(N)n5] | < 5 µM | < 5 µM
3 | CC(=O)NCc1ccc2sc(-c3ccnc(N)n3)c(C)c2c1 [Example 95, CC(═O)NCc1ccc2sc(c(C)c2c1)-c3ccnc(N)n3] | > 5 µM | > 5 µM
4 | Cc1c(-c2ccnc(N)n2)sc2ccc(CNC(=O)C=Cc3ccccc3)cc12 [Example 128, Cc1c(sc2ccc(CNC(═O)C═Cc3ccccc3)cc12)-c4ccnc(N)n4] | < 5 µM | < 5 µM
5 | Cc1c(-c2ccnc(N)n2)sc2ccc(Nc3cccc(OCc4ccccc4)c3)cc12 [Example 55, 4-(5-(3-(Benzyloxy)phenylamino)-3-methylbenzo[b]thiophen-2-yl)pyrimidin-2-amine] | < 5 µM | < 5 µM
6 | Cc1c(-c2ccnc(N)n2)sc2ccc(CNC(=O)C=O)cc12 [Example 96, Cc1c(sc2ccc(CNC(═O)C═O)cc12)-c3ccnc(N)n3] | > 5 µM | > 5 µM
7 | Cc1c(-c2ccnc(N)n2)sc2ccc(CNC(=O)c3ccccc3O)cc12 [Example 122, Cc1c(sc2ccc(CNC(═O)c3ccccc3O)cc12)-c4ccnc(N)n4] | > 5 µM | < 5 µM
8 | Cc1c(-c2ccnc(N)n2)sc2ccc(CNC(=O)C(Cc3ccccc3)NC(=O)OC(C)(C)C)cc12 (stereo not drawn) [Example 325, Cc1c(sc2ccc(CNC(═O)[C](Cc3ccccc3)NC(═O)OC(C)(C)C)cc12)-c4ccnc(N)n4] | < 5 µM | > 5 µM
9 | Cc1c(-c2ccnc(N)n2)sc2ccc(Cc3cccc(C(F)(F)F)c3)cc12 [Example 39, 4-(3-Methyl-5-(3-(trifluoromethyl)benzyl)benzo[b]thiophen-2-yl)pyrimidin-2-amine] | > 5 µM | > 5 µM
10 | Cc1ccc(SCC(=O)NCc2ccc3sc(-c4ccnc(N)n4)c(C)c3c2)cc1 [Example 223, Cc1ccc(SCC(═O)NCc2ccc3sc(c(C)c3c2)-c4ccnc(N)n4)cc1] | > 5 µM | < 5 µM
11 | Cc1c(-c2ccnc(N)n2)sc2ccc(CNC(=O)C=Cc3cccc(O)c3)cc12 [Example 163, Cc1c(sc2ccc(CNC(═O)C═Cc3cccc(O)c3)cc12)-c4ccnc(N)n4] | < 5 µM | < 5 µM
12 | Cc1c(-c2ccnc(N)n2)sc2ccc(CNC(=O)c3ccc(Oc4cccc(O)c4)cc3)cc12 [Example 306, Cc1c(sc2ccc(CNC(═O)c3ccc(Oc4cccc(O)c4)cc3)cc12)-c5ccnc(N)n5] | > 5 µM | < 5 µM
13 | Cc1c(-c2ccnc(N)n2)sc2ccc(Cc3cccc(C(=O)N4CCN(C)CC4)c3)cc12 [Example 50, (3-((2-(2-Aminopyrimidin-4-yl)-3-methylbenzo[b]thiophen-5-yl)methyl)phenyl)(4-methylpiperazin-1-yl)methanone] | < 5 µM | < 5 µM
14 | Cc1c(-c2ccnc(N)n2)sc2ccc(CNC(=O)c3ccc(Oc4ccccc4)cc3)cc12 [Example 284, Cc1c(sc2ccc(CNC(═O)c3ccc(Oc4ccccc4)cc3)cc12)-c5ccnc(N)n5] | > 5 µM | < 5 µM
15 | Cc1c(-c2ccnc(N)n2)sc2ccc(CNC(=O)c3cc(Cl)ccc3[N+](=O)[O-])cc12 [Example 269, Cc1c(sc2ccc(CNC(═O)c3cc(Cl)ccc3[N+]([O−])═O)cc12)-c4ccnc(N)n4] | < 5 µM | < 5 µM
16 | COc1ccc(O)c(C(=O)NCc2ccc3sc(-c4ccnc(N)n4)c(C)c3c2)c1 [Example 182, COc1ccc(O)c(c1)C(═O)NCc2ccc3sc(c(C)c3c2)-c4ccnc(N)n4] | > 5 µM | < 5 µM
17 | Cc1c(-c2ccnc(N)n2)sc2ccc(CNC(=O)COc3ccccc3C=O)cc12 [Example 207, Cc1c(sc2ccc(CNC(═O)COc3ccccc3C═O)cc12)-c4ccnc(N)n4] | < 5 µM | < 5 µM
18 | Cc1c(-c2ccnc(N)n2)sc2ccc(CNC(=O)c3cccnc3)cc12 [Example 109, Cc1c(sc2ccc(CNC(═O)c3cccnc3)cc12)-c4ccnc(N)n4] | > 5 µM | < 5 µM
19 | COc1cc(OC)cc(C(=O)NCc2ccc3sc(-c4ccnc(N)n4)c(C)c3c2)c1 [Example 221, COc1cc(OC)cc(c1)C(═O)NCc2ccc3sc(c(C)c3c2)-c4ccnc(N)n4] | > 5 µM | < 5 µM
20 | Cc1ccccc1OCC(=O)NCc1ccc2sc(-c3ccnc(N)n3)c(C)c2c1 [Example 175, Cc1ccccc1OCC(═O)NCc2ccc3sc(c(C)c3c2)-c4ccnc(N)n4] | > 5 µM | < 5 µM

Row | SMILES | IC50 [1] | IC50 [2]
21 | COc1cc(OC)c(C(=O)NCc2ccc3sc(-c4ccnc(N)n4)c(C)c3c2)cc1OC [Example 278, COc1cc(OC)c(cc1OC)C(═O)NCc2ccc3sc(c(C)c3c2)-c4ccnc(N)n4] | < 5 µM | < 5 µM
22 | Cc1c(-c2ccnc(N)n2)sc2ccc(CNC(=O)CC(C)C)cc12 [Example 101, CC(C)CC(═O)NCc1ccc2sc(c(C)c2c1)-c3ccnc(N)n3] | < 5 µM | < 5 µM
23 | Cc1c(-c2ccnc(N)n2)sc2ccc(CNC(=O)c3ccc(Cl)cc3O)cc12 [Example 190, Cc1c(sc2ccc(CNC(═O)c3ccc(Cl)cc3O)cc12)-c4ccnc(N)n4] | < 5 µM | < 5 µM
24 | Cc1c(-c2ccnc(N)n2)sc2ccc(CNC(=O)Cc3ccccc3O)cc12 [Example 35, N-((2-(2-Aminopyrimidin-4-yl)-3-methylbenzo[b]thiophen-5-yl)methyl)-2-(2-hydroxyphenyl)acetamide] | < 5 µM | < 5 µM
25 | Cc1c(-c2ccnc(N)n2)sc2ccc(CNC(=O)c3csc4ccccc34)cc12 [Example 201, Cc1c(sc2ccc(CNC(═O)c3csc4ccccc34)cc12)-c5ccnc(N)n5] | > 5 µM | < 5 µM
26 | Cc1c(-c2ccnc(N)n2)sc2ccc(Sc3cccc(O)c3)cc12 [Example 84, 3-(2-(2-Aminopyrimidin-4-yl)-3-methylbenzo[b]thiophen-5-ylthio)phenol] | < 5 µM | < 5 µM
27 | Cc1c(-c2ccnc(N)n2)sc2ccc(CNC(=O)c3cc([N+](=O)[O-])ccc3F)cc12 [Example 229, Cc1c(sc2ccc(CNC(═O)c3cc(ccc3F)[N+]([O−])═O)cc12)-c4ccnc(N)n4] | < 5 µM | < 5 µM
28 | CCOc1ccccc1C(=O)NCc1ccc2sc(-c3ccnc(N)n3)c(C)c2c1 [Example 174, CCOc1ccccc1C(═O)NCc2ccc3sc(c(C)c3c2)-c4ccnc(N)n4] | > 5 µM | > 5 µM
29 | COc1ccc(C=CC(=O)NCc2ccc3sc(-c4ccnc(N)n4)c(C)c3c2)cc1O [Example 256, COc1ccc(C═CC(═O)NCc2ccc3sc(c(C)c3c2)-c4ccnc(N)n4)cc1O] | < 5 µM | < 5 µM
30 | Cc1c(-c2ccnc(N)n2)sc2ccc(Nc3cccnc3)cc12 [Example 65, 4-(3-Methyl-5-(pyridin-3-ylamino)benzo[b]thiophen-2-yl)pyrimidin-2-amine] | < 5 µM | < 5 µM
31 | Cc1c(-c2ccnc(N)n2)sc2ccc(CNC(=O)c3c(F)c(F)c(F)c(F)c3F)cc12 [Example 276, Cc1c(sc2ccc(CNC(═O)c3c(F)c(F)c(F)c(F)c3F)cc12)-c4ccnc(N)n4] | < 5 µM | < 5 µM
32 | Cc1c(-c2ccnc(N)n2)sc2ccc(CNC(=O)C(C)(C)C)cc12 [Example 100, Cc1c(sc2ccc(CNC(═O)C(C)(C)C)cc12)-c3ccnc(N)n3] | < 5 µM | < 5 µM
33 | Cc1c(-c2ccnc(N)n2)sc2cnccc12 [Example 18, 4-(3-Methylthieno[2,3-c]pyridin-2-yl)pyrimidin-2-amine] | < 5 µM | < 5 µM
34 | Cc1c(-c2ccnc(N)n2)sc2ccc(CNC(=O)C=Cc3ccc4c(c3)OCO4)cc12 [Example 249, Cc1c(sc2ccc(CNC(═O)C═Cc3ccc4OCOc4c3)cc12)-c5ccnc(N)n5] | > 5 µM | < 5 µM
35 | Cc1c(-c2ccnc3[nH]ccc23)sc2ccc(Cl)cc12 [Example 6, 4-(5-Chloro-3-methylbenzo[b]thiophen-2-yl)-1H-pyrrolo[2,3-b]pyridine] | > 5 µM | > 5 µM
36 | COc1cccc(C#Cc2ccc3sc(-c4ccnc(N)n4)c(C)c3c2)c1 [Example 89, 4-(5-((3-Methoxyphenyl)ethynyl)-3-methylbenzo[b]thiophen-2-yl)pyrimidin-2-amine] | > 5 µM | > 5 µM
37 | Cc1c(-c2ccnc(N)n2)sc2ccc(CNC(=O)CC(C)CC(C)(C)C)cc12 (stereo not drawn) [Example 158, CC(CC(═O)NCc1ccc2sc(c(C)c2c1)-c3ccnc(N)n3)CC(C)(C)C] | > 5 µM | > 5 µM
38 | Cc1c(-c2ccnc(N)n2)sc2ccc(CNC(=O)c3cc(O)ccc3[N+](=O)[O-])cc12 [Example 227, Cc1c(sc2ccc(CNC(═O)c3cc(O)ccc3[N+]([O−])═O)cc12)-c4ccnc(N)n4] | > 5 µM | < 5 µM
39 | Cc1c(-c2ccnc(N)n2)sc2ccc(CNC(=O)c3ccccc3C(=O)c3ccc(F)cc3)cc12 [Example 317, Cc1c(sc2ccc(CNC(═O)c3ccccc3C(═O)c4ccc(F)cc4)cc12)-c5ccnc(N)n5] | < 5 µM | > 5 µM
